These results are taken from the NIST ThermoML archive (doi:10.1021/je700363m).

Numbers after ± are expanded uncertainties.

The nature of this series: wn = mass fraction of the nth substance listed. As to conditions: 101 kPa, Liquid; for viscosity: Capillary tube (Ostwald / Ubbelohde) method.

One may read the viscosity as the internal friction of a fluid under shear. A word on the mass density: it is mass per unit of volume. On to `[K+].[K+].[O]=[Cr](=[O])([O-])[O-]` [potassium chromate(VI)] + O, for which the viscosity runs as follows: (298.15 K, w1 = 0.0931) 0.9285 ± 0.0077 mPa·s; (313.15 K, w1 = 0.0931) 0.7309 ± 0.0062 mPa·s. Besides, the mass density (298.15 K, w1 = 0.049) turned out to be 1034.6 ± 1 kg/m3; the mass density (298.15 K, w1 = 0.0538) was determined as 1038.3 ± 1 kg/m3; the mass density (298.15 K, w1 = 0.0653) turned out to be 1046.8 ± 1 kg/m3.

Take `[K+].[K+].[O]=[Cr](=[O])([O-])[O][Cr](=[O])(=[O])[O-]` [potassium dichromate] + O: the viscosity is, setting by setting: (313.15 K, w1 = 0.0478) 0.6465 ± 0.0055 mPa·s; (313.15 K, w1 = 0.0906) 0.6805 ± 0.0058 mPa·s; (319.15 K, w1 = 0.155) 0.6914 ± 0.0059 mPa·s; (323.25 K, w1 = 0.172) 0.6658 ± 0.0057 mPa·s; (333.35 K, w1 = 0.214) 0.6307 ± 0.0054 mPa·s. Moreover, the mass density runs as follows: (313.15 K, w1 = 0.02) 1006.5 ± 1.1 kg/m3; (313.15 K, w1 = 0.05) 1026.8 ± 1.2 kg/m3; (319.15 K, w1 = 0.155) 1166.5 ± 1.4 kg/m3; (323.25 K, w1 = 0.172) 1184.2 ± 1.5 kg/m3; (333.15 K, w1 = 0.02) 997 ± 1.3 kg/m3; (333.15 K, w1 = 0.05) 1016.4 ± 1.3 kg/m3. In addition, under “333.32 K, w1 = 0.214”, the mass density was determined as 1232.1 ± 1.6 kg/m3.
